The values that follow are results of earlier work, collected in patent publication US20200069618A1, “COMPOSITIONS HAVING AN AGENT AND AN ENHANCER THEREOF, METHODS OF USE, AND DELIVERY SYSTEMS” (priority 2018, published 2020).

Molecules are shown by their SMILES.

Series [1] deals with rats. The note with it: intercerebroventricular administration.
Series [2] has as its system rats. The conditions noted are these: administration into the basal forebrain.

Turning to `CCCCC/C=C\C/C=C\C/C=C\C/C=C\CCCC(=O)NCCO` [anandamide, Anandamide], in the series on rats [1], the “slow-wave sleep and REM sleep” value was “increase slow-wave sleep and REM sleep”; the wakefulness entry is reported as “decrease wakefulness”. In the series with rats [2], the levels of adenosine result is “increase levels of adenosine”.
